Test results: patent publication US8129514B2, “Nucleotide sequences for regulating gene expression in plant trichomes and constructs and methods utilizing same” (Evogene Ltd., priority 2003, dated 2012)
Marks after values point to notes of the source that are not given here.

Assays:
PPO [1] = details: positive control at 200 mM; PPO harvested from trichome cells; cited from earlier work
PPO [2] = assay: Decrease of PPO activity (browning of supernatant) by antioxidants in ground tomato leaves; assay type: biochemical, Tomato (L. esculentum); details: for Efficient concentration (minimal concentration that enables a decrease of 95% of PPO activity): w/v, 10 mM Tris-HCl pH=8, about 2 hrs at 4° C.
Protocol: Three compounds were tested: citric acid, ascorbic acid and sodium bisulfite. Different concentrations of chemicals were used to identify the chemical with the highest antioxidant activity. Tomato (L. esculentum) young leaves (about 100 mg) were grinded at 4° C. in 200 μl of 10 mM Tris-HCl pH=8 buffer containing appropriate concentration of antioxidant (0.01-2.0% w/v), incubated for about 2 hrs at 4° C. and centrifuged at 14,000 rpm for 3 min in order to separate leaves-debris and liquid fraction. Decreasing of PPO activity was inspected by eliminating the production of brown color of the supernatant as a result of the oxidation of polyphenols. Table 8 below summarizes the minimal concentration that enables a decrease of 95% of PPO activity.
A buffer without any antioxidant was used as a negative control.

tomato trichome = assay: GUS staining of leaves of T1 tomato plants carrying promoter-GUS constructs; assay type: in vivo, tomato (Lycopersicon esculentum cv. Micro-Tom)
Protocol: Tomato transformation—Tomato transformation was carried out according to Fillati et al. (19). Briefly, Lycopersicon esculentum cv. Micro-Tom cotyledons were used for Agrobacterium based plant transformation. The Micro-Tom seeds were surface sterilized for 10 min in a 3% sodium hypochlorite solution. The seeds were washed with DDW three times and soaked for three hours in fresh DDW, then plated into 0.5 L container with Nitsch medium, containing MS salts, 3% sucrose, Nitsch vitamins and 0.8% plant agar (Duchefa, Netherland). The PH was adjusted to 5.8 prior to autoclaving for 20 min at 121° C. 50 seeds where plated on 0.5 L sterilized container containing the germination medium and left at 25° C. in culture room, 16/8 hrs light/dark cycles, under light intensity of (150 μEm^−2S). Seedlings where grown for 8 days.
A. GUS staining—Gus staining of tomato and tobacco plants was effected as previously described (15). Briefly: Leaves were fixed in 90% ice cold acetone for 15-20 minutes (on ice), followed by removal of acetone and a double tissue rinsing with the Working Solution [25 mM Sodium Phosphate (Sigma, USA) buffer pH=7, Ferricyanide (Sigma, USA) 1.25 mM, Ferrocyanide (Sigma, USA) 1.25 mM, Triton X-100 (Sigma, USA) 0.25%, EDTA (BioLab) 0.25 mM] for 15-20 minutes. Rinse solution was removed, replaced with Staining solution [Working solution with 5-bromo-4-chloro-3-indolyl-β-D-glucuronic acid (X-GlcA, Duchefa) solubilized in N,N-Dimethylformamide (BioLab) 1.5 mg/ml and Dithiothreitol (DTT, Bio Lab) 100 mM] and incubated in the dark (tubes wrapped with aluminum foil) over night at 37° C. Distaining was effected by sinking the plant tissue in 70% ethanol and heating at 50° C. for ˜2 hours. The distaining step was repeated until the plant tissue became transparent except the blue stained regions. Distained plants were stored in 70% ethanol (BioLab) at room temperature.
GUS staining was performed on leaves of T1 tomato and tobacco plants transfected with a binary vector including putative trichome specific promoters upstream of a GUS gene. […]

Question: For `O[C@H](CS)[C@H](O)CS` (racemic) [DDT, Dithiothreitol], which PPO activity (PPO [1]) is on record?
Answer: eliminate PPO activity

Question: Which “Efficient concentration (minimal concentration that enables a decrease of 95% of PPO activity)” value (PPO [2]) does the source give for `O=C1O[C@H]([C@@H](O)CO)C(O)=C1O` [Ascorbic acid] here?
Answer: 1.0%*

Question: With `O=C(O)CC(O)(CC(=O)O)C(=O)O` [Citric acid] as the molecule, how does the “Efficient concentration (minimal concentration that enables a decrease of 95% of PPO activity)” value (PPO [2]) read?
Answer: 1.0%

Question: For `O=S([O-])O.[Na+]` [Sodium bisulfite], which “PPO activity as indicated by medium browning” value (PPO [2]; increasing concentrations, FIG. 3) is on record?
Answer: decreased PPO activity

Question: What about the “Efficient concentration (minimal concentration that enables a decrease of 95% of PPO activity)” value (PPO [2]) of the same molecule?
Answer: 0.05%

B1: TR27-P: previously described cotton promoter, G. barbadense var. Pima 15, SEQ ID NO: 39 (nucleic acid)
DNA: AAGCTTTAAGTTTAAATCCTATTGTAGTGTTATTTATAAAAAAAATGAGAAAAGATAAAAATACCTTTATATTAATATTTGTTATATTATAAAATAAGGATATTTTTAACAAATTTTCAATTGAATAGATGTTTGGGTGAATCCTAATACCAATTAAAGTATATATACAGCAAACAATTATAAATCAAATTACTTTTAATAAAATGCTATCATTCAATTCAATGACAATAAATGCATTTATAAATACATCAAATGTAAATCTCATGTTTATAAGAAAACACGTAGAAAAAAAGTTAAACCAATATTTGAGTCCTAGCTGTGGAGGCATGATTGAGTGAAATCAAATGGACGCTGGTTTTAATTCTATTGAAAGAAACCAATAATCACGTAGGTTGGCAGTTGAACATAATTGAATGGTCTCAACTTTTAATGTGGTGTTAATGTTTGGATCGGATAATCTCAACTTACCTAATAGCTAGGAAAGTAAAATTCAAACATCACCCGCTACTACTTTTGGCTATAAAAACCCTCCTACCCTCAAGCCCTAACCACGACAATCACCAATAGTACTACTACTCCAAGCAAGTATTTTCCTTACACGTTTGTTTTTCTTGTGATAATGGATCC
modifications: Gossypium barbadense
Question: For B1, which Avg grade (tomato trichome; GUS staining, tomato T1 generation, signal peptide: No) is on record?
Answer: 0.4

Question: What about the GUS expression pattern (tomato trichome; GUS under the regulation of the promoter, FIGS. 1d-h) of the same molecule?
Answer: expressed in a trichome-gland specific manner

Question: What about the “effectiveness in facilitating expression of heterologous genes in the tomato trichome” value (tomato trichome; conclusion from Table 6) of the same molecule?
Answer: most effective
